Assays:
[1] = system: cytoplasmic and secreted reporters; experiment: Thapsigargin effect on activity of cytoplasmic and secreted reporters in inducible 293FlpInTrex cell lines; assay type: cell-based; conditions: 24 hours, different concentrations
Method: FIG. 16: Changes in proteostasis pathways 96 hours postinduction (A) relative mRNA levels of cells expressing cLucAβ or sLucAβ versus cLucSH3 or sLucSH3 measured by qPCR; (B) Protein expression analysed by Western blot. (C) Activity of cytoplasmic and secreted reporters normalized by cell survival in the presence of different concentrations of Thapsigargin compared to solvent alone. Data are means±s.d. Experiments were carried out using doxycyline inducible 293FlpInTrex cell lines expressing the aggregation sensors.
293T FlipInTrex (Invitrogen) cells. 293T FlipInTrex cells were grown as described above, using Tet Approved Fetal Bovine Serum (Clontech) and supplementing the medium with Zeocin 100 μg/mL (Invitrogen) and Blasticidin 15 μg/ml (InVivoGen, San Diego, USA). Zeocin selects for the lacZeo inserted into FRT sites in the genome, and Blasticidin selects for Tet repressor expression. […]
(§1) Cell survival was measured using Cell titer Blue kit (Promega). […] After 1 hour incubation at 37° C., fluorescence was recorded in a Spectramax M5 plate reader, using excitation at 560 nm and emission at 590 nm in Relative Fluorescence Units (RFU).

sLucAβ = experiment: Effect of small molecule aggregation inhibitors on secreted reporter in inducible cell lines; assay type: cell-based; conditions: 1 μM compound, 24 hours
Method: (§2) 293T FlipInTrex (Invitrogen) cells. 293T FlipInTrex cells were grown as described above, using Tet Approved Fetal Bovine Serum (Clontech) and supplementing the medium with Zeocin 100 μg/mL (Invitrogen) and Blasticidin 15 μg/ml (InVivoGen, San Diego, USA). Zeocin selects for the lacZeo inserted into FRT sites in the genome, and Blasticidin selects for Tet repressor expression. For the generation of isogenic stable doxycycline inducible cell lines, cells were co-transfected overnight using Lipofectamine 2000 with the pcDNA5/FRT/TO vectors containing the fusion proteins-IRES-(NLS)3EGFP cassettes, and the pOGG-Flp recombinase plasmid (Invitrogen) at a ratio pcDNA/pOGG of 1:9. On day 2, cells were replated at −25% confluency, and selection for recombined clones was started by supplementing the medium with 75 μg/ml Hygromycin (InvivoGen) and Zeocin 100 μg/mL. Medium was exchanged every 2-3 days until colonies appeared. Cells were adapted to cell culture media containing 5% Tet approved Fetal Bovine Serum (Clontech), and 5% Serum Replacement 3 (Sigma). […] Expression of the chimeric reporter proteins was induced by addition of 0.75 μg/mL Doxycycline (Sigma-Aldrich) to cell culture medium, and tested for luciferase activity and western-blot (see below).
Effect of Small Molecule Inhibitors of Aβ42 aggregation in inducible cell lines. Congo Red, Rosmarinic acid, Quercetin, scyllo-inositol, and (−)-Epigallocatechin gallate (EGCG) were purchased from Sigma-Aldrich, and dissolved in DMSO. Cells were plated in 96-well plates and allowed to attach overnight. Cell medium without antibiotics was prepared containing 2× of the final compound concentration (1 μM) and 2× of final doxycycline concentration (0.75 μgr/ml) and diluted to 1× with media in the well. Control cells were treated with medium containing the same volume of DMSO. 8 wells were treated per condition. After 24 hours, 4 wells were harvested for luciferase assays, and 4 wells were used for cell survival assays.
sLuc Metridia activity. sLuc Metridia activity was measured using the same plates and instrument described above. Metridia reagent was prepared as described in (G. A. Stepanyuk et al., 2008, Protein Expr Purif 61, 142). Coelenterazine, native (Biosynth AG, Staad, Switzerland) was brought up at 1.43 mM in Methanol acidified with 1N HCl and diluted to 7.2 μM in 20 mM Tris-HCl 0.3M NaCl pH7.5 (Sigma-Aldrich). 20 μl of cell medium were transferred to white 96-well plates, 50 μl of reagent was injected, and every well was read for 5 s followed by a 3s delay. sLuciferase activity is measured in Relative Luminiscence Units (RLU).
as §1
(§3) Effect of small molecule inhibitors of Aβ42 in the inducible cell lines. The ratio luciferase activity/cell survival (Rsmall molecule) was calculated as shown in eq. […] Four technical replicates were measured per molecule for each test. Standard deviation was calculated using eq. […]
(§4) Comparing the Fold inhibition ratio of a given molecule in the Aβ42 and SH3 sensors allows the identification of molecules that change the ratios by mechanisms non-specific to aggregation such as toxicity or interference with luciferase activity. […] Standard errors were calculated using Error propagation theory. […]

synthetic Aβ42 = biological target: T1, synthetic Aβ42 (Homo sapiens, UniProt P05067); experiment: Inhibition of in vitro aggregation of synthetic Aβ42 by small molecules (ThT fluorescence); assay type: biochemical; conditions: 1 μM compound, 25 μM Aβ42, 1 day at 30° C.
T1 construct: a fragment comprising residues 672-713 of Aβ (“Aβ42”); purchased Bachem
T1 sequence (P05067 672-713): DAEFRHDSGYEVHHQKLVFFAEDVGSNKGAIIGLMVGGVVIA
Method: (§5) Aβ42, Aβ40, Aβ42F20E and Aβ42E22G peptides (Bachem, Torrance, USA) were disaggregated using Hexafluoro-2-propanol (HFIP, Sigma-Aldrich) following the protocol described elsewhere (C. Goldsbury, et al., 2005, J Mol Biol 352, 282), and aliquoted into low protein binding tubes (Eppendorf).
Effect of small molecule inhibitors of Aβ42 aggregation. 2 mM Aβ42 stock solutions in DMSO) were sonicated for 5 minutes, and diluted to final 25 μM concentration in PBS (Gibco). Small molecules were added to final 1 μM concentration, the final DMSO concentration in all samples and control was kept equal. Samples were incubated for 1 day at 30° C., and tested for Aβ42 aggregation using Thioflaving T (Tht, Sigma-Aldrich) binding monitored by fluorescence (excitation 450 nm/emission 485 nm). Tht was prepared at 5 μM in 20 mM Glycine pH=8 buffer. 10 μl of sample were plated in triplicates in clear bottom non-binding black plates (Corning), and 100 μl of Tht were added. After 5 minutes of incubation at room temperatures, fluorescence was read. Data were corrected by Tht alone fluorescence, and normalized by the Tht intensity of the control solution, Aβ42+DMSO. Ratios and standard deviations were calculated as described in the Data Analysis section.

cLucAβ = experiment: Effect of small molecule aggregation inhibitors on cytoplasmic reporter in inducible cell lines; assay type: cell-based; conditions: 1 μM compound, 24 hours
Method: as §2
Effect of Small Molecule Inhibitors of Aβ42 aggregation in inducible cell lines. Congo Red, Rosmarinic acid, Quercetin, scyllo-inositol, and (−)-Epigallocatechin gallate (EGCG) were purchased from Sigma-Aldrich, and dissolved in DMSO. Cells were plated in 96-well plates and allowed to attach overnight. […]
cLuciferase Firefly activity. […] 20 μl of cellular lysate were transferred to white 96-well plates (Corning), 100 μl of luciferase reagent were injected, and every well was read for 5 s followed by 3 s delay to minimize cross-talk between wells using a Modulus Microplate Multimode Reader (Turner Biosystems Inc., Sunnyvale, Calif., USA). cLuciferase activity is measured in Relative Luminiscence Units (RLU).
as §1, §3, §4

[2] = In vitro Aβ42 aggregation kinetics by Thioflavin T fluorescence; assay type: physicochemical; conditions: 25 μM in PBS, 30° C., ThT
Method: as §5
In vitro Aβ42 kinetic experiment. 25 μM Aβ42 in PBS was incubated at 30° C. Aliquots were withdrawn at different time points, and Tht binding was measured in triplicates.

Molecule | effect on sLucAβ activity compared to solvent alone (sLucAβ) | effect on cLucAβ activity compared to solvent alone (cLucAβ) | also measured
C/C=C(/C)C(=O)O[C@H]1C(C)=C2[C@H]([C@@H]1OC(=O)CCCCCCC)[C@@](C)(OC(C)=O)C[C@H](OC(=O)CCC)[C@@]1(O)[C@H]2OC(=O)[C@@]1(C)O [TG, Thapsigargin] |  |  | effect on aggregation sensor activity normalized by cell survival [1]: increase of only sAβ activity in a TG dose-dependent manner
Nc1c(/N=N/c2ccc(-c3ccc(/N=N/c4cc(S(=O)(=O)O)c5ccccc5c4N)cc3)cc2)cc(S(=O)(=O)O)c2ccccc12 [Congo Red] | did not increase the activity |  | inhibition of in vitro aggregation of synthetic Aβ42 by ThT fluorescence (synthetic Aβ42): potently inhibited
O[C@H]1[C@H](O)[C@@H](O)[C@H](O)[C@@H](O)[C@@H]1O [Scilloinositol, scyllo-inositol] | significantly increased activity | no effect | 
(−)-Epigallocatechin gallate [EGCG] | significantly increased activity | no effect | 
O=c1c(O)c(-c2ccc(O)c(O)c2)oc2cc(O)cc(O)c12 [Quercetin] | significantly increased activity | no effect | 
synthetic Aβ peptide: synthetic Aβ42 peptide (Bachem) used for in vitro aggregation |  |  | exponential phase of in vitro aggregation [2]: 6 to 24 h; plateau of in vitro aggregation [2]: 24 to 72 h
O=C(/C=C/c1ccc(O)c(O)c1)O[C@H](Cc1ccc(O)c(O)c1)C(=O)O [Rosmarinic acid] | significantly increased activity | no effect | 

— patent US20120141983A1, “Quantitative Aggregation Sensors” (priority 2010, published 2012)
